The record followed here is ChEMBL document CHEMBL1201862, “PubChem BioAssay data set” (2004).

Some test systems named below: TK-10; UO-31; OVCAR-4; HCT-116; IGROV-1; HCT-15; KM12; HOP-62; MOLT-4; OVCAR-3; CAKI-1; SK-OV-3; SF-295; K562; SK-MEL-28; OVCAR-5; NCI-H522; SNB-75; SF-539.
Common to all, as to experiment: NCI-60 cell line screen, 48 h

Structures are written as SMILES.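 Compound exposure: 48 hours, 5 concentrations, 96-well plates. At the GI50, growth is halved.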 The source made the active and inactive calls. Rule as the data show it: active = GI50 up to about 1.1 µM and inactive = higher.

As to `O=C(O)C1CC2C=CCC(C2)C1` (stereo unspecified), the GI50 with TK-10 was > 100 µM (inactive); in the test on UO-31 it was > 100 µM (inactive); in the test on OVCAR-4, > 100 µM (inactive); with HCT-116, > 100 µM (inactive); with IGROV-1 it was > 100 µM (inactive); in the test with HCT-15, more than 100 µM. The GI50 with KM12, in the test with HOP-62, in the test on MOLT-4, in the test with OVCAR-3, in the test with CAKI-1 and in the test with SK-OV-3 was > 100 µM (inactive) throughout. Besides, the GI50 with SF-295, in the test with K562, in the test on SK-MEL-28, in the test with OVCAR-5, in the test on NCI-H522 and in the test with SNB-75 was > 100 µM (inactive) in each case.
Consider `CN1C(=O)N(C)C2(CCN(CC(CC3OCCO3)c3ccc(F)cc3)CC2)C1=O` (stereo unspecified), for which the GI50 in the test with TK-10, with UO-31, in the test with OVCAR-4, in the test on HCT-116, with IGROV-1 and in the test with SF-539 was > 100 µM (inactive) in each case. For the same compound, the GI50 was more than 100 µM in the test with HCT-15; > 100 µM (inactive) in the test on HOP-62; > 100 µM (inactive) in the test on MOLT-4; > 100 µM (inactive) with OVCAR-3; > 100 µM (inactive) in the test on CAKI-1; > 100 µM (inactive) in the test with SK-OV-3. Moreover, the GI50 with SF-295, in the test on K562, in the test with SK-MEL-28, with OVCAR-5, in the test on NCI-H522 and in the test with SNB-75 was > 100 µM (inactive) each time.
Turning to `C[N+](C)(C)CC1CCC(C[N+](C)(C)C)C1=NO` (stereo unspecified), the GI50 in the test on UO-31 was > 100 µM (inactive); with OVCAR-4 it was > 100 µM (inactive); in the test with HCT-116, > 100 µM (inactive); with IGROV-1, > 100 µM (inactive); in the test on SF-539, > 100 µM (inactive); in the test with HCT-15 it was more than 100 µM. Moreover, the GI50 in the test on KM12, with HOP-62, in the test on MOLT-4, with OVCAR-3, with SK-OV-3 and with SF-295 was > 100 µM (inactive) each time. In addition, the GI50 in the test with K562, with SK-MEL-28, in the test with NCI-H522 and in the test with SNB-75 was > 100 µM (inactive) throughout.
Turning to `CCc1ccc2nc(-c3ccc(O)cc3)sc2c1`, the GI50 in the test on TK-10 is 17.9 µM (inactive); in the test with UO-31, 11.8 µM (inactive); in the test with HCT-116 it was 16.7 µM (inactive); in the test with IGROV-1, 14 µM (inactive); with SF-539, 11.7 µM (inactive); in the test with HCT-15 it was 15.1 µM. For the same compound, the GI50 in the test with KM12 was 14.3 µM (inactive); with MOLT-4 it was 13.6 µM (inactive); in the test on OVCAR-3, 13.6 µM (inactive); with CAKI-1, 12.4 µM (inactive); with SK-OV-3 it was 16.7 µM (inactive); in the test on SF-295 it was 16.8 µM (inactive). Besides, the GI50 in the test with K562 was 19.6 µM (inactive); in the test on OVCAR-5 it was 15.3 µM (inactive); with NCI-H522 it was 3.86 µM (inactive).
On to `O=C(CCc1ccc(O)cc1)NCCc1cccc(O)c1`, for which the GI50 with TK-10, with UO-31, in the test with OVCAR-4, with HCT-116, in the test on IGROV-1 and with SF-539 was > 50 µM (inactive) each time. For the same compound, the GI50 with HCT-15 was more than 50 µM; with KM12, > 50 µM (inactive); in the test on HOP-62, > 50 µM (inactive); in the test with MOLT-4 it was > 50 µM (inactive); with OVCAR-3 it was > 50 µM (inactive); with CAKI-1, > 50 µM (inactive). Also, the GI50 with SK-OV-3 is > 50 µM (inactive); in the test with SF-295, > 50 µM (inactive); in the test with K562, > 50 µM (inactive); with SK-MEL-28, > 50 µM (inactive); in the test with OVCAR-5, > 50 µM (inactive); with NCI-H522, 20.2 µM (inactive). The GI50 in the test with SNB-75 is 0.005 µM (active).
